Where two headings read alike, the source gives them in different places. Bounds are passed on as bounds.

This experiment addresses T1, human TRPC5 (Homo sapiens, UniProt Q9UL62).
T1 construct: expressed in transfected cells; host or cells: HEK 293
T1 sequence (Q9UL62 1-973): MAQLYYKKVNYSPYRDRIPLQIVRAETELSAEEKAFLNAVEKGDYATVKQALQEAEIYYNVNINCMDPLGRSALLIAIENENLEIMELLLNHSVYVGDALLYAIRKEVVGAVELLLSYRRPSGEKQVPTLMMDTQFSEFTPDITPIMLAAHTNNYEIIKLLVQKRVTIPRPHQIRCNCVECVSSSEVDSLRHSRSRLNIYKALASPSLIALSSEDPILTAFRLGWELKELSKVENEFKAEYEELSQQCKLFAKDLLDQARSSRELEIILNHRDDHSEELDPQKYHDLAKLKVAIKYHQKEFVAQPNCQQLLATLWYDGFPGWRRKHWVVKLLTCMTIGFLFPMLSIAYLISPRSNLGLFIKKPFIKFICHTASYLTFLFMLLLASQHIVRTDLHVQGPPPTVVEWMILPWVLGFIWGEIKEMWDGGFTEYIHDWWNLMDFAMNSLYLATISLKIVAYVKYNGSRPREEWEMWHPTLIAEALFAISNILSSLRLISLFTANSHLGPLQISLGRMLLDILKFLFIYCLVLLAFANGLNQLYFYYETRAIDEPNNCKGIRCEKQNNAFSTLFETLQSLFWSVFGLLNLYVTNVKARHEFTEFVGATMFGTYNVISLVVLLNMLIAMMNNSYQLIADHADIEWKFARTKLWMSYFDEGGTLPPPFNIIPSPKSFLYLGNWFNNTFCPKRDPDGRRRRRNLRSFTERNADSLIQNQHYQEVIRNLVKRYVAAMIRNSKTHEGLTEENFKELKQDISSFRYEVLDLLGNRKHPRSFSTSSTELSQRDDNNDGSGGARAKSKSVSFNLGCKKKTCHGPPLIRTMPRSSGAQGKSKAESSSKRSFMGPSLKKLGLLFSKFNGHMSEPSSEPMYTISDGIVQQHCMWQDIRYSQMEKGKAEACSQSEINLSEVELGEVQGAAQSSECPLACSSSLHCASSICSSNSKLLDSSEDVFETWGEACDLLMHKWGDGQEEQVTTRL
Briefly: Automated patch clamp assay (QPatch), current block after stimulation with rosiglitazone. The class given is cell-based. The following applies: HEK293 cells overexpressing TRPC5, whole cell automated patch. The procedure: HEK 293 cells expressing human TRPC5 were harvested, re-suspended in serum free medium, and added to the automated platform and used within 2-3 hours. Internal and external physiological solutions were freshly prepared prior to the assay. The external solution contained: 145 mM NaCl, 4 mM KCl, 2 mM CaCl2), 1 mM MgCl2, 10 mM HEPES, 10 mM glucose, pH 7.4 with NaOH and 300 mOsm/L. The internal solution contained 120 mM L-aspartic acid, 120 mM CsOH.H2O, 20 mM CsCl, 2 mM MgCl2, 8.8 mM CaCl2), 10 mM EGTA, 10 mM HEPES, 10 mM Glucose, 0.1 mM GTP and 2 mM Na2ATP; pH 7.2 with CsOH and 290 mOsm/L. The free internal Ca2+ concentration was buffered to 1 μM.
The automated electrophysiological platform QPatch 16 from Sophion (Denmark) was used to carry out the compounds profiling. The series resistance and quality of seals were continuously monitored during the experiments. Data was analyzed using Sophion QPatch assay software 5.6 (Odense). IC50 values were calculated using a least squares regression algorithm (Hill equation).
To monitor the ion currents, a voltage ramp from −100 mV to +100 mV, over 300 ms, was applied every 10 seconds, from a holding potential of −60 mV.
After recording for a minimum of 60 seconds control period, Rosiglitazone (30 uM), was applied to activate the channel.

Where [1] appears, read: 80 mV, 1-substituted 7-azaindoles, read-out: TRPC5 IC50 80 mV.
Setting [2] is: 100 mV, 1-substituted 7-azaindoles, read-out: TRPC5 IC50 100 mV.
[3] abbreviates: 100 mV, 7-substituted 7-azaindoles, read-out: TRPC5 IC50 100 mV.

For the compound `CCN(CC)Cc1cc2cccnc2n1Cc1ccccc1`, the IC50 is 6.24 µM under setting [1] and 4.19 µM under setting [2].

For the compound `COC(C)(C)Cc1cc2cccnc2n1Cc1ccccc1`, the IC50 runs as follows: under setting [1], 13.8 µM; under setting [2], 8.52 µM.

On to `c1ccc(Cn2c(CN3CCCC3)cc3cccnc32)cc1`, for which the IC50 under setting [1] worked out at 17 µM and the IC50 under setting [2] was determined as 16.6 µM.

Regarding `CN(C)Cc1cc2cccnc2n1Cc1ccccc1`, the IC50 came to 18.3 µM under setting [1] and 21.6 µM under setting [2].

In the case of `Cn1nc(C(F)(F)F)cc1Cn1c(C(C)(C)C)cc2cccnc21`, the IC50 amounted to 19.6 µM under setting [1] and 19.1 µM under setting [2].

For the compound `Clc1ccc(Cn2c(CN3CCCC3)cc3cccnc32)cc1`, the 50% inhibitory concentration (IC50) under setting [1] was 23.6 µM and the IC50 under setting [2] came out at 25.2 µM.

Regarding `CC(C)(C)c1cc2cccnc2n1Cc1ccc(Cl)cc1`, the IC50 under setting [1] was more than 30 µM.

For `CC(C)(C)Cc1cc2cccnc2n1Cc1ccccc1`, the IC50 is more than 30 µM under setting [1] and more than 30 µM under setting [2].

As to `C[C@@H](c1ccccc1)n1c(C(C)(C)C)cc2cccnc21`, the IC50 was more than 30 µM under setting [1] and more than 30 µM under setting [2].

On to `CC(c1ccccc1)n1c(C(C)(C)C)cc2cccnc21` (stereo not drawn), for which the IC50 under setting [1] is more than 30 µM.

For `C[C@H](c1ccccc1)n1c(C(C)(C)C)cc2cccnc21`, the IC50 is more than 30 µM under setting [1] and more than 30 µM under setting [2].

With `Cc1ccnc2c1cc(C(C)(C)C)n2Cc1ccccc1`, the IC50 under setting [1] was more than 30 µM.

As to `COc1ccc(Cn2c(C(C)(C)C)cc3cccnc32)cc1`, the half-inhibitory concentration (IC50) by setting is: under setting [1], more than 30 µM; under setting [2], more than 30 µM.

Regarding `OCCc1cc2cccnc2n1Cc1ccccc1`, the half-maximal inhibitory concentration (IC50) is more than 30 µM under setting [1] and more than 30 µM under setting [2].

For `Cc1ccc2cc(C(C)(C)C)n(Cc3ccccc3)c2n1`, the IC50 under setting [1] was more than 30 µM.

`COc1cccc(Cn2c(C(C)(C)C)cc3cccnc32)c1`: the IC50 by setting is: under setting [1], more than 30 µM; under setting [2], more than 30 µM.

For `CN(C)CCc1cc2cccnc2n1Cc1ccccc1`, the IC50 runs as follows: under setting [1], more than 30 µM; under setting [2], more than 30 µM.

Regarding `CC(C)(C)c1cc2cccnc2n1Cc1cncc(F)c1`, the IC50 under setting [1] was more than 30 µM and the IC50 under setting [2] was more than 30 µM.

As for `CC(C)(O)Cc1cc2cccnc2n1Cc1ccccc1`, the half-maximal inhibitory concentration (IC50) reads like this: under setting [1], more than 30 µM; under setting [2], more than 30 µM.

Take `COCCc1cc2cccnc2n1Cc1ccccc1`: the concentration for half-maximal inhibition (IC50) is more than 30 µM under setting [1] and more than 30 µM under setting [2].

With `CC(C)(C)c1cc2cccnc2n1Cc1ccncc1`, the IC50 by setting is: under setting [1], more than 30 µM; under setting [2], more than 30 µM.

Consider `CC(C)(C)c1cc2cccnc2n1Cc1ccc(Cl)cc1C#N`, for which, under setting [1], the IC50 was more than 30 µM.

In the case of `COC(C)(C)c1cc2cccnc2n1Cc1ccccc1`, the IC50 is more than 30 µM under setting [1] and more than 30 µM under setting [2].

Turning to `CC(C)(C)c1cc2cccnc2n1Cc1cccnc1`, the IC50 was more than 30 µM under setting [1] and more than 30 µM under setting [2].

In the case of `Cc1cc2cccnc2n1Cc1ccccc1`, the IC50 under setting [1] was more than 30 µM.

Consider `COc1cc(Cl)ccc1Cn1c(C(C)(C)C)cc2cccnc21`, for which the IC50 under setting [1] was more than 30 µM.

In the case of `Cc1ccc2cc(C(C)(C)C)n(C(=O)c3ccccc3)c2n1`, the IC50 under setting [1] was more than 30 µM.

Take `CC(C)(C)c1cc2cccnc2n1Cc1ccc(Cl)cn1`: the 50% inhibitory concentration (IC50) under setting [1] is more than 30 µM.

As to `Cc1cc2cccnc2n1Cc1ccc(Cl)cc1`, under setting [1], the IC50 is more than 30 µM.

For the compound `OCc1cc2cccnc2n1Cc1ccccc1`, the IC50 is, setting by setting: under setting [1], more than 30 µM; under setting [2], more than 30 µM.

`Cc1ncc(Cn2c(C(C)(C)C)cc3cccnc32)cn1`: the IC50 under setting [1] was more than 30 µM.

As to `CC(C)(C)c1cc2c(OCCCO)ccnc2n1Cc1ccccc1`, the IC50 by setting is: under setting [1], more than 30 µM; under setting [2], more than 30 µM.

As to `CC(C)(C)c1cc2ccc(OCCO)nc2n1Cc1ccccc1`, the IC50 under setting [1] is more than 30 µM.

In the case of `Cn1cc(Cn2c(C(C)(C)C)cc3cccnc32)cn1`, the IC50 runs as follows: under setting [1], more than 30 µM; under setting [2], more than 30 µM.

Consider `CC(C)(C)c1cc2cc(OCCCO)cnc2n1Cc1ccccc1`, for which the IC50 reads like this: under setting [1], more than 30 µM; under setting [2], more than 30 µM.

Regarding `CC(C)(C)c1cc2ccc(OCCCO)nc2n1Cc1ccccc1`, under setting [1], the IC50 was more than 30 µM.

Consider `Cc1nn(C)cc1Cn1c(C(C)(C)C)cc2cccnc21`, for which the IC50 is more than 30 µM under setting [1] and more than 30 µM under setting [2].

As for `Cc1noc(C)c1Cn1c(C(C)(C)C)cc2cccnc21`, the IC50 is more than 30 µM under setting [1] and more than 30 µM under setting [2].

With `Cn1cc(Cn2c(C(C)(C)C)cc3cccnc32)c(C(F)(F)F)n1`, the IC50 runs as follows: under setting [1], more than 30 µM; under setting [2], more than 30 µM.

Turning to `CC(C)(C)c1cc2cccnc2n1CC1CCCCC1`, the IC50 under setting [1] was more than 30 µM.

Take `CC(C)(C)c1cc2cccnc2n1CCc1ccccc1`: under setting [1], the IC50 was more than 30 µM.

As to `CC(C)(C)c1cc2cccnc2n1CCOc1ccccc1`, under setting [1], the IC50 is more than 30 µM.

For the compound `CC(C)(C)c1cc2cccnc2n1CC1CCOCC1`, the IC50 under setting [1] is more than 30 µM.

Consider `CC(C)(C)c1cc2cccnc2n1CCCc1ccccc1`, for which the IC50 under setting [1] is more than 30 µM.

For `CN1CCC(Cn2c(C(C)(C)C)cc3cccnc32)CC1`, the IC50 under setting [1] was more than 30 µM.

On to `CC(C)(C)c1cc2cccnc2n1CC1CCNCC1`, for which the concentration for half-maximal inhibition (IC50) under setting [1] was more than 30 µM.

As for `CC(C)(C)c1cc2cccnc2n1CC1CCN(Cc2ccccc2)CC1`, the IC50 under setting [1] was more than 30 µM.

On to `CC(=O)N1CCC(Cn2c(C(C)(C)C)cc3cccnc32)CC1`, for which the IC50 under setting [1] was more than 30 µM.

For `CC(C)(C)c1cc2cccnc2n1CC1CCN(S(C)(=O)=O)CC1`, the IC50 under setting [1] was more than 30 µM.

Consider `COc1ccc(Cn2cccc3cc(C(C)(C)C)nc2-3)cc1`, for which the IC50 under setting [3] was 5.47 µM.

For the compound `CC(C)(C)c1cc2cccn(Cc3cncc(F)c3)c-2n1`, the IC50 under setting [3] came to 7.64 µM.

In the case of `Cn1cc(Cn2cccc3cc(C(C)(C)C)nc2-3)cn1`, under setting [3], the IC50 amounted to 9.79 µM.

In the case of `Cn1cc(Cn2cccc3cc(C(C)(C)C)nc2-3)c(C(F)(F)F)n1`, under setting [3], the IC50 stood at 10.4 µM.

Regarding `Cn1nc(C(F)(F)F)cc1Cn1cccc2cc(C(C)(C)C)nc1-2`, the IC50 under setting [3] was determined as 12.2 µM.

In the case of `Cc1noc(C)c1Cn1cccc2cc(C(C)(C)C)nc1-2`, under setting [3], the IC50 stood at 15.6 µM.

`Cc1nn(C)cc1Cn1cccc2cc(C(C)(C)C)nc1-2`: the IC50 under setting [3] was 17.6 µM.

`CC(C)(C)c1cc2cccn(Cc3ccncc3)c-2n1`: the half-maximal inhibitory concentration (IC50) under setting [3] was more than 30 µM.

`CC(C)(C)c1cc2cccnc2n1Cc1ccccc1` [drawing 63]: under setting [1], the IC50 stood at 3.51 µM.

`CC(C)(C)c1cc2cccnc2n1Cc1ccccc1` [drawing 65]: the IC50 under setting [1] is 7.07 µM.

Turning to `CC(C)Cc1cc2cccnc2n1Cc1ccccc1` [drawing 72], the IC50 under setting [1] was more than 30 µM.

For `CC(C)Cc1cc2cccnc2n1Cc1ccccc1` [drawing 73], the IC50 under setting [2] is more than 30 µM.

As to `CC(C)(O)c1cc2cccnc2n1Cc1ccccc1` [drawing 80], the IC50 under setting [1] is more than 30 µM.

With `CC(C)(O)c1cc2cccnc2n1Cc1ccccc1` [drawing 81], the half-inhibitory concentration (IC50) under setting [2] was more than 30 µM.

As to `CC(C)(C)c1cc2cccnc2n1C[C@H]1CC[C@H](C)CC1` [drawing 112], the 50% inhibitory concentration (IC50) under setting [1] was more than 30 µM.

In the case of `CC(C)(C)c1cc2cccnc2n1C[C@H]1CC[C@H](C)CC1` [drawing 113], the IC50 under setting [2] was more than 30 µM.

Regarding `CC(C)(C)c1cc2cccn(Cc3ccc(Cl)cc3)c-2n1` [drawing 125], the IC50 under setting [3] stood at 6.02 µM.

For the compound `CC(C)(C)c1cc2cccn(Cc3ccc(Cl)cc3)c-2n1` [drawing 127], under setting [3], the concentration for half-maximal inhibition (IC50) amounted to 8.1 µM.

As for `COc1cccc(Cn2cccc3cc(C(C)(C)C)nc2-3)c1` [drawing 128], the 50% inhibitory concentration (IC50) under setting [3] amounted to 8.57 µM.

Turning to `COc1cccc(Cn2cccc3cc(C(C)(C)C)nc2-3)c1` [drawing 130], under setting [3], the IC50 stood at 10.2 µM.

Take `CC(C)(C)c1cc2cccn(Cc3cccnc3)c-2n1` [drawing 133]: the IC50 under setting [3] stood at 14 µM.

(Values after patent US20210115036A1, “AZAINDOLES AND METHODS OF USE THEREOF” (GOLDFINCH BIO, INC., priority 2017, published 2021).)
